From PubChem BioAssay AID588512 (NMMLSC, 2011)
Activity calls are given as the source filed them.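 Rule for the calls: active = viability below 80%, counted as toxic; inactive = the rest.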

Test system: HEK-293 viability, CellTiter-Glo ATP luminescence, 3 days
Assay: HEK-293 cell cytotoxicity, late-stage follow-up, cytotoxicity control for GRK2 aptamer-displacement inhibitor project, powder set 1 (AID 588512)
Conditions: at 20 µM; stronger effect = lower value

SMILES	viability
O=C(CCS(=O)(=O)c1ccc(Br)cc1)NCCc1ccc(Cl)cc1	124% (inactive)
O=C(CCS(=O)(=O)c1ccc(Br)cc1)Nc1cc(F)ccc1F	110% (inactive)
Cc1ccccc1NC(=O)CCS(=O)(=O)c1ccc(Br)cc1	128% (inactive)
Cc1cccc(N2CCN(C(=O)CCS(=O)(=O)c3ccc(Br)cc3)CC2C)c1 (stereo not given)	113% (inactive)
COc1ccc(CNC(=O)CCS(=O)(=O)c2ccc(Br)cc2)cc1	95.2% (inactive)
CCOc1ccc(CCNC(=O)CCS(=O)(=O)c2ccc(Br)cc2)cc1OCC	123% (inactive)
O=C(O)C1CC(=O)N(c2ccc3c(c2)OCCO3)C1 (stereo not given)	133% (inactive)
Cc1cc2ccccc2n1CCNC(=O)c1cccs1	109% (inactive)
CCc1ccccc1NC(=O)CCS(=O)(=O)c1ccc(Br)cc1	82.6% (inactive)
Cc1cc(=O)[nH]c(SCC(=O)NCc2ccco2)n1	69.3%
